PubChem BioAssay (NCI)
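GI50 marks 50% less growth. TGI denotes the concentration required for complete inhibition of growth.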

Columns and labels:
Assay in all cases: NCI-60 cell line screen, 384-well format
786-0 renal = test system: 786-0 renal
A498 renal = test system: A498 renal
A549 NSCLC = test system: A549 NSCLC
ACHN renal = test system: ACHN renal
BT-549 breast = test system: BT-549 breast
CAKI-1 renal = test system: CAKI-1 renal
COLO 205 colon = test system: COLO 205 colon
DU-145 prostate = test system: DU-145 prostate
EKVX NSCLC = test system: EKVX NSCLC
HCT-116 colon = test system: HCT-116 colon
HCT-15 colon = test system: HCT-15 colon
HL-60(TB) leukemia = test system: HL-60(TB) leukemia
HOP-62 NSCLC = test system: HOP-62 NSCLC
HOP-92 NSCLC = test system: HOP-92 NSCLC
HS 578T breast = test system: HS 578T breast
HT29 colon = test system: HT29 colon
IGROV1 ovarian = test system: IGROV1 ovarian
K-562 leukemia = test system: K-562 leukemia
KM12 colon = test system: KM12 colon
M14 melanoma = test system: M14 melanoma
MALME-3M melanoma = test system: MALME-3M melanoma
MCF7 breast = test system: MCF7 breast
MDA-MB-231 breast = test system: MDA-MB-231 breast
MDA-MB-435 melanoma = test system: MDA-MB-435 melanoma
MDA-MB-468 breast = test system: MDA-MB-468 breast
MOLT-4 leukemia = test system: MOLT-4 leukemia
NCI-H226 lung = test system: NCI-H226 lung
NCI-H23 lung = test system: NCI-H23 lung

CC(C)[C@@H](CS(=O)(=O)C(C)C)N1C(=O)[C@@](C)(CC(=O)O)C[C@H](c2cccc(Cl)c2)[C@H]1c1ccc(Cl)cc1
GI50 ([…]-0 renal): 36.5 µM | TGI (786-0 renal): > 100 µM | GI50 (A498 renal): 0.295 µM | TGI (A498 renal): 11.3 µM | GI50 (A549 NSCLC): 0.433 µM | TGI (A549 NSCLC): 13 µM | GI50 (ACHN renal): 0.228 µM | TGI (ACHN renal): 0.949 µM | GI50 (BT-549 breast): 17.5 µM | TGI (BT-549 breast): 34.4 µM | GI50 (CAKI-1 renal): 0.204 µM | TGI (CAKI-1 renal): 13.1 µM | GI50 (COLO 205 colon): 52.4 µM | TGI (COLO 205 colon): > 100 µM | GI50 (DU-145 prostate): 27.2 µM | TGI (DU-145 prostate): > 100 µM | GI50 (EKVX NSCLC): 18.9 µM | TGI (EKVX NSCLC): 51.5 µM | GI50 (HCT-116 colon): 0.334 µM | TGI (HCT-116 colon): 15.1 µM | GI50 (HCT-15 colon): 26.4 µM | TGI (HCT-15 colon): 78.3 µM | GI50 (HL-60(TB) leukemia): 17.3 µM | TGI (HL-60(TB) leukemia): 31.2 µM | GI50 (HOP-62 NSCLC): 21.5 µM | TGI (HOP-62 NSCLC): 51.1 µM | GI50 (HOP-92 NSCLC): 17.7 µM | TGI (HOP-92 NSCLC): 40.4 µM | GI50 (HS 578T breast): 15.5 µM | TGI (HS 578T breast): 32.8 µM | GI50 (HT29 colon): 37 µM | TGI (HT29 colon): > 100 µM | GI50 (IGROV1 ovarian): 12.1 µM | TGI (IGROV1 ovarian): > 100 µM | GI50 (K-562 leukemia): 20.6 µM | TGI (K-562 leukemia): > 100 µM | GI50 (KM12 colon): 0.319 µM | TGI (KM12 colon): 10 µM | GI50 (M14 melanoma): 13.5 µM | TGI (M14 melanoma): 37.5 µM | GI50 (MALME-3M melanoma): 0.45 µM | TGI (MALME-3M melanoma): 19.8 µM | GI50 (MCF7 breast): 0.157 µM | TGI (MCF7 breast): 0.573 µM | GI50 (MDA-MB-231 breast): 20.5 µM | TGI (MDA-MB-231 breast): > 100 µM | GI50 (MDA-MB-435 melanoma): 20.7 µM | TGI (MDA-MB-435 melanoma): 46 µM | GI50 (MDA-MB-468 breast): 6.07 µM | TGI (MDA-MB-468 breast): 22.2 µM | GI50 (MOLT-4 leukemia): 0.117 µM | TGI (MOLT-4 leukemia): 0.246 µM | GI50 (NCI-H226 lung): 0.148 µM | TGI (NCI-H226 lung): 0.324 µM | GI50 (NCI-H23 lung): 14.6 µM
